Assay [1] concerns the target His6-TEV-PDGFRβ (557-1016) (Homo sapiens (Human), UniProt P09619). Put plainly: PDGFRβ HTRF Assay. Type of assay: biochemical. The note with it: read-out: PDGFR HTRF IC50. In a few lines:
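Human PDGFRβ (557-1016) pre-incubated with compound for 30 min at RT in pH 7.5 HEPES/MgCl2/EGTA/Brij-35/DTT buffer. Reaction started with ATP and TK-biotin peptide, run 3 h at RT, then quenched with EDTA-containing Eu-cryptate antibody/streptavidin-XL665. HTRF 665/620 nm ratio read after 60 min; percent inhibition relative to DMSO and 10 μM imatinib controls.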

The next assay deals with VEGFR2, unphosphorylated (Homo sapiens (Human), UniProt P35968). Put plainly: VEGFR ADP GLO Assay. The assay is classed as biochemical.
Chain of VEGFR2, unphosphorylated (P35968 20-1356): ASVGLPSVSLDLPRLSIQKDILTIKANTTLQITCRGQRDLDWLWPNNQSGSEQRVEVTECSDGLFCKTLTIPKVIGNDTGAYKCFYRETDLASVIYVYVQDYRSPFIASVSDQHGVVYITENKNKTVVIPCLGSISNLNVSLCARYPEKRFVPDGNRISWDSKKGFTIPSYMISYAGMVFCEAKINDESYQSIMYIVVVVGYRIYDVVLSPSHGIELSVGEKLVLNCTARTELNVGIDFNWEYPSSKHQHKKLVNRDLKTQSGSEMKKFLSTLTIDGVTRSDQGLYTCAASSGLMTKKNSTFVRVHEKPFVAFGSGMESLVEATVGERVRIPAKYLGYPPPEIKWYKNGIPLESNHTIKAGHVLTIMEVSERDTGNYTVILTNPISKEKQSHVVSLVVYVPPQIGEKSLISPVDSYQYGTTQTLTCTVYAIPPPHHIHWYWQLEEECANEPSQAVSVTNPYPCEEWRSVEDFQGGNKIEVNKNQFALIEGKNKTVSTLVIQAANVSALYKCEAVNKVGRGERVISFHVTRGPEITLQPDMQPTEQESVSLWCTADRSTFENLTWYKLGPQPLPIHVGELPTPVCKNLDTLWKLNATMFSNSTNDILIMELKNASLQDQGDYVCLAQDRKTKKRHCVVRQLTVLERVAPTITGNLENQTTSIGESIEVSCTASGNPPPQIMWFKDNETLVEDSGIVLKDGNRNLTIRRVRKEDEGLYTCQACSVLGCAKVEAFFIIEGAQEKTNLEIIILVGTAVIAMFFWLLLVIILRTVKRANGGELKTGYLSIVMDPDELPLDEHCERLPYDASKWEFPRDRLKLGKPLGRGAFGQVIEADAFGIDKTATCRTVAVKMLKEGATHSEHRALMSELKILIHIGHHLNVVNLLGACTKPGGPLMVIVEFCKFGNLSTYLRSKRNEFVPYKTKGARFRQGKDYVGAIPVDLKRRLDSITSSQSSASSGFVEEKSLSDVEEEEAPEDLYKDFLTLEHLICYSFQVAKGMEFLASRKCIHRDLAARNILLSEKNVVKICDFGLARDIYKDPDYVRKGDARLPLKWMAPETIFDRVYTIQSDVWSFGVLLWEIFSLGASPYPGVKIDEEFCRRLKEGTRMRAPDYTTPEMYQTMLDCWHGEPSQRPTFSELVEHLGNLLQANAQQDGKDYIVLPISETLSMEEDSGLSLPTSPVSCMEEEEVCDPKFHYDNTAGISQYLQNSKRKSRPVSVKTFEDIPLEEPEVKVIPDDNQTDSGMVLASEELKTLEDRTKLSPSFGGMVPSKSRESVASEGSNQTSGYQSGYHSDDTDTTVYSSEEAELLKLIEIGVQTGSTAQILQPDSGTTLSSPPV
The target of assay [2] is Tb-labeled inactive PDGFRβ (Homo sapiens (Human), UniProt P09619). Put plainly: PDGFRβ LanthaScreen Assay. Type of assay: binding. Conditions: read-out: PDGFR Lantha IC50.
Chain of Tb-labeled inactive PDGFRβ (P09619 33-1106): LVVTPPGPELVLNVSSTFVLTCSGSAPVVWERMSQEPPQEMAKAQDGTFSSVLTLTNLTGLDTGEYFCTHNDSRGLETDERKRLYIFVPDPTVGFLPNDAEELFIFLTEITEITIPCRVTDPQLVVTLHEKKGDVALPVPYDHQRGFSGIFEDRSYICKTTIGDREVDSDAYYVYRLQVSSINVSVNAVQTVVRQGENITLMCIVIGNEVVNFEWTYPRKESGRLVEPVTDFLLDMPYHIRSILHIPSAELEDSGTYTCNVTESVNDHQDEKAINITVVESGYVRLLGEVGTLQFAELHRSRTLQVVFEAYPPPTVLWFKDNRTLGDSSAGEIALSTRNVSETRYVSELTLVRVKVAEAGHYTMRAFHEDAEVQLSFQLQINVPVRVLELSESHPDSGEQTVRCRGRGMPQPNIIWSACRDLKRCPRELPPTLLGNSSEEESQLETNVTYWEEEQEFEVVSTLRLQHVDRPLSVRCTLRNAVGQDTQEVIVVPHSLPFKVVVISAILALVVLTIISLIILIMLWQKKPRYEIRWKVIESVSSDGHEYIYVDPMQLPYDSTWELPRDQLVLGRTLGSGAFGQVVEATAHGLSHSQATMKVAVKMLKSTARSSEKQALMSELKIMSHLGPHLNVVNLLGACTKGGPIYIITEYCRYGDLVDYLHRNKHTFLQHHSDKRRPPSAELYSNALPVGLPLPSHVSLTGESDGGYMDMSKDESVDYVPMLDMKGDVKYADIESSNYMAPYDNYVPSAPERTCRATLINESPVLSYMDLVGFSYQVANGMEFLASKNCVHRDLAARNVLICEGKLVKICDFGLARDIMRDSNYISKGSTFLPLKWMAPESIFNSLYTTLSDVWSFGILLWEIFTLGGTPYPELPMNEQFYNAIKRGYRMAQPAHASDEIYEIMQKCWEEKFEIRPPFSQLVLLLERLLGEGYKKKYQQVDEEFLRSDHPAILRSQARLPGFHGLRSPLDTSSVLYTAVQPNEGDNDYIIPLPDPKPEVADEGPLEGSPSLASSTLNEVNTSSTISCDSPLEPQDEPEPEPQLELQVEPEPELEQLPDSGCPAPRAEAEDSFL

These results are taken from patent publication US20240109917A1 (ACTELION PHARMACEUTICALS LTD, priority 2020, published 2024).

Chain of His6-TEV-PDGFRβ (557-1016) (P09619 557-1016): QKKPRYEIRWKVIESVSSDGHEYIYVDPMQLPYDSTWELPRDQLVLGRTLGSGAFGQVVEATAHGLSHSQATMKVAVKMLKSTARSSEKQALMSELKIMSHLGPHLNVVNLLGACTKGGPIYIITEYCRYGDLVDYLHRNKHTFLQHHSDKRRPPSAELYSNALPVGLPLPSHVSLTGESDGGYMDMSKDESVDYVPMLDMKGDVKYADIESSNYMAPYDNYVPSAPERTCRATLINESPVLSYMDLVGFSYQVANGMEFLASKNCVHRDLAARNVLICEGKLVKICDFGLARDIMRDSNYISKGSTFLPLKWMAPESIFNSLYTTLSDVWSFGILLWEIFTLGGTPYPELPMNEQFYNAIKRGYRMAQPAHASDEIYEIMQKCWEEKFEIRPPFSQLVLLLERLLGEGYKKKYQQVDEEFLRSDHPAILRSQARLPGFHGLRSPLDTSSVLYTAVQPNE

With `COC/C=C/c1cn2ncc(C(=O)Nc3cc(NC(=O)CN4C[C@H](C)O[C@@H](C)C4)cnc3C)c2s1` (relative stereo) [Example 367, N-(5-(2-(trans-2,6-dimethylmorpholino)acetamido)-2-methylpyridin-3-yl)-2-((E)-3-methoxyprop-1-en-1-yl)pyrazolo[5,1-b]thiazole-7-carboxamide], the IC50 is 1.8 nM in assay [1]; over 7500 nM at VEGFR2, unphosphorylated; 17.3 nM in assay [2].

For the molecule `COc1ncccc1-c1cn2ncc(C(=O)Nc3cc(NC(=O)CN4C[C@H](C)O[C@@H](C)C4)cnc3C)c2s1` (relative stereo) [Example 368, N-(5-(2-(trans-2,6-dimethylmorpholino)acetamido)-2-methylpyridin-3-yl)-2-(2-methoxypyridin-3-yl)pyrazolo[5,1-b]thiazole-7-carboxamide], the IC50 was 0.3 nM in assay [1]; over 7500 nM against VEGFR2, unphosphorylated; 2.4 nM in assay [2].

For `Cc1ncc(NC(=O)CN2C[C@H](C)O[C@@H](C)C2)cc1NC(=O)c1cnn2cc(-c3c[nH]nc3C)sc12` (relative stereo) [Example 371, N-(5-(2-(trans-2,6-dimethylmorpholino)acetamido)-2-methylpyridin-3-yl)-2-(3-methyl-1H-pyrazol-4-yl)pyrazolo[5,1-b]thiazole-7-carboxamide], the IC50 was 0.4 nM in assay [1]; over 2500 nM at VEGFR2, unphosphorylated; 3 nM in assay [2].

Turning to `Cc1ncc(NC(=O)CN2C[C@H](C)O[C@@H](C)C2)cc1NC(=O)c1cnn2cc(-c3cnc(N)c(F)c3)sc12` (relative stereo) [Example 372, 2-(6-amino-5-fluoropyridin-3-yl)-N-(5-(2-(trans-2,6-dimethylmorpholino)acetamido)-2-methylpyridin-3-yl)pyrazolo[5,1-b]thiazole-7-carboxamide], the IC50 was 0.6 nM in assay [1]; over 2500 nM on VEGFR2, unphosphorylated; 7.7 nM in assay [2].

In the case of `Cc1ncc(NC(=O)CN2C[C@H](C)O[C@@H](C)C2)cc1NC(=O)c1cnn2cc(-c3c(C)n[nH]c3C)sc12` (relative stereo) [Example 373, 2-(3,5-dimethyl-1H-pyrazol-4-yl)-N-(5-(2-(trans-2,6-dimethylmorpholino)acetamido)-2-methylpyridin-3-yl)pyrazolo[5,1-b]thiazole-7-carboxamide], the half-inhibitory concentration (IC50) in assay [1] is 1.3 nM; at VEGFR2, unphosphorylated, over 7500 nM; in assay [2], 7 nM.

For `Cc1ncc(NC(=O)CN2C[C@H](C)O[C@@H](C)C2)cc1NC(=O)c1cnn2cc(-c3cc[nH]n3)sc12` (relative stereo) [Example 374, N-(5-(2-(trans-2,6-dimethylmorpholino)acetamido)-2-methylpyridin-3-yl)-2-(1H-pyrazol-3-yl)pyrazolo[5,1-b]thiazole-7-carboxamide], the IC50 in assay [1] was 0.4 nM; on VEGFR2, unphosphorylated it was over 7500 nM; in assay [2], 4 nM.

Take `Cc1ncc(NC(=O)CN2C[C@H](C)O[C@@H](C)C2)cc1NC(=O)c1cnn2cc(-c3cnn4c3OCCC4)sc12` (relative stereo) [Example 375, 2-(6,7-dihydro-5H-pyrazolo[5,1-b][1,3]oxazin-3-yl)-N-(5-(2-(trans-2,6-dimethylmorpholino)acetamido)-2-methylpyridin-3-yl)pyrazolo[5,1-b]thiazole-7-carboxamide]: the concentration for half-maximal inhibition (IC50) in assay [1] was 0.6 nM; against VEGFR2, unphosphorylated, over 833 nM; in assay [2], 4.5 nM.

For the molecule `Cc1ncc(NC(=O)CN2C[C@@H](CO)O[C@@H](C)C2)cc1NC(=O)c1cnn2cc(-c3cnn(C)c3)sc12` (relative stereo) [Example 378, N-(5-(2-(cis-2-(hydroxymethyl)-6-methylmorpholino)acetamido)-2-methylpyridin-3-yl)-2-(1-methyl-1H-pyrazol-4-yl)pyrazolo[5,1-b]thiazole-7-carboxamide], the half-inhibitory concentration (IC50) in assay [1] was 0.8 nM; against VEGFR2, unphosphorylated it was over 2500 nM; in assay [2], 10.2 nM.

With `Cc1ncc(NC(=O)CN2C[C@H](C)O[C@@H](C)C2)cc1NC(=O)c1cnn2cc(-c3cnn(C4CC4)c3)sc12` (relative stereo) [Example 382, 2-(1-cyclopropyl-1H-pyrazol-4-yl)-N-(5-(2-(trans-2,6-dimethylmorpholino)acetamido)-2-methylpyridin-3-yl)pyrazolo[5,1-b]thiazole-7-carboxamide], the half-maximal inhibitory concentration (IC50) in assay [1] was 0.6 nM; against VEGFR2, unphosphorylated it was over 2500 nM; in assay [2], 5.3 nM.

With `COc1ncccc1-c1cn2ncc(C(=O)Nc3cc(NC(=O)CN4C[C@H](C)O[C@@H](C)C4)cnc3C)c2s1` (relative stereo) [Example 384, N-(5-(2-(trans-2,6-dimethylmorpholino)acetamido)-2-methylpyridin-3-yl)-2-(2-methoxypyridin-3-yl)pyrazolo[5,1-b]thiazole-7-carboxamide], the IC50 in assay [1] is 0.4 nM; on VEGFR2, unphosphorylated it was over 833 nM; in assay [2], 2.3 nM.

For `COc1ccncc1-c1cn2ncc(C(=O)Nc3cc(NC(=O)CN4C[C@H](C)O[C@@H](C)C4)cnc3C)c2s1` (relative stereo) [Example 385, N-(5-(2-(trans-2,6-dimethylmorpholino)acetamido)-2-methylpyridin-3-yl)-2-(4-methoxypyridin-3-yl)pyrazolo[5,1-b]thiazole-7-carboxamide], the 50% inhibitory concentration (IC50) in assay [1] was 0.8 nM; on VEGFR2, unphosphorylated, over 833 nM; in assay [2], 4.9 nM.

`COc1cccc(-c2cn3ncc(C(=O)Nc4cc(NC(=O)CN5C[C@H](C)O[C@@H](C)C5)cnc4C)c3s2)n1` (relative stereo) [Example 386, N-(5-(2-(trans-2,6-dimethylmorpholino)acetamido)-2-methylpyridin-3-yl)-2-(6-methoxypyridin-2-yl)pyrazolo[5,1-b]thiazole-7-carboxamide]: the half-inhibitory concentration (IC50) in assay [1] was 0.4 nM; against VEGFR2, unphosphorylated, over 833 nM; in assay [2], 2.5 nM.

With `Cc1ncc(NC(=O)CN2CCC[C@H]2C)cc1NC(=O)c1cnn2cc(-c3cnn(C)c3)sc12` [Example 26, (R)-2-(1-methyl-1H-pyrazol-4-yl)-N-(2-methyl-5-(2-(2-methyl-pyrrolidin-1-yl)acetamido)pyridin-3-yl)pyrazolo[5,1-b]thiazole-7-carboxamide], the IC50 is 0.8 nM in assay [1]; over 7500 nM against VEGFR2, unphosphorylated; 11.7 nM in assay [2].

In the case of `Cc1ncc(NC(=O)CN2CCC[C@@H]2C)cc1NC(=O)c1cnn2cc(-c3cnn(C)c3)sc12` [Example 27, (S)-2-(1-methyl-1H-pyrazol-4-yl)-N-(2-methyl-5-(2-(2-methyl-pyrrolidin-1-yl)acetamido)pyridin-3-yl)pyrazolo[5,1-b]thiazole-7-carboxamide], the half-maximal inhibitory concentration (IC50) in assay [1] was 0.9 nM; against VEGFR2, unphosphorylated, over 7500 nM; in assay [2], 16.2 nM.

For `Cc1ncc(NC(=O)CN2CCC(C)(C)C2)cc1NC(=O)c1cnn2cc(-c3cnn(CCO)c3)sc12` [Example 28, N-(5-(2-(3,3-dimethylpyrrolidin-1-yl)acetamido)-2-methylpyridin-3-yl)-2-(1-(2-hydroxyethyl)-1H-pyrazol-4-yl)pyrazolo[5,1-b]thiazole-7-carboxamide], the IC50 was 0.6 nM in assay [1]; over 7500 nM on VEGFR2, unphosphorylated; 4.2 nM in assay [2].

`Cc1ncc(NC(=O)CN2CCCC23CCC3)cc1NC(=O)c1cnn2cc(-c3cnn(CCO)c3)sc12` [Example 29, N-(5-(2-(5-azaspiro[3.4]octan-5-yl)acetamido)-2-methylpyridin-3-yl)-2-(1-(2-hydroxyethyl)-1H-pyrazol-4-yl)pyrazolo[5,1-b]thiazole-7-carboxamide]: the IC50 in assay [1] was 0.4 nM; against VEGFR2, unphosphorylated, over 7500 nM; in assay [2], 3.4 nM.

As for `Cc1ncc(NC(=O)CN2CCC3(CCC3)C2)cc1NC(=O)c1cnn2cc(-c3cnn(CCO)c3)sc12` [Example 30, N-(5-(2-(6-azaspiro[3.4]octan-6-yl)acetamido)-2-methylpyridin-3-yl)-2-(1-(2-hydroxyethyl)-1H-pyrazol-4-yl)pyrazolo[5,1-b]thiazole-7-carboxamide], the IC50 in assay [1] was 0.5 nM; against VEGFR2, unphosphorylated, over 7500 nM; in assay [2] it was 3.3 nM.

On to `Cc1ncc(NC(=O)CN2CCC3(CC2)CC3)cc1NC(=O)c1cnn2cc(-c3cnn(CCO)c3)sc12` [Example 31, N-(5-(2-(6-azaspiro[2.5]octan-6-yl)acetamido)-2-methylpyridin-3-yl)-2-(1-(2-hydroxyethyl)-1H-pyrazol-4-yl)pyrazolo[5,1-b]thiazole-7-carboxamide], for which the half-inhibitory concentration (IC50) was 0.6 nM in assay [1]; over 7500 nM against VEGFR2, unphosphorylated; 5.1 nM in assay [2].

Turning to `Cc1ncc(NC(=O)CN2CCC3(CC3)C2)cc1NC(=O)c1cnn2cc(-c3cnn(CCO)c3)sc12` [Example 32, N-(5-(2-(5-azaspiro[2.4]heptan-5-yl)acetamido)-2-methylpyridin-3-yl)-2-(1-(2-hydroxyethyl)-1H-pyrazol-4-yl)pyrazolo[5,1-b]thiazole-7-carboxamide], the IC50 in assay [1] was 0.7 nM; against VEGFR2, unphosphorylated it was over 7500 nM; in assay [2], 5.5 nM.

For `Cc1ncc(NC(=O)CN2CCCC[C@H]2C)cc1NC(=O)c1cnn2cc(-c3cnn(CCO)c3)sc12` [Example 33, (R)-2-(1-(2-hydroxyethyl)-1H-pyrazol-4-yl)-N-(2-methyl-5-(2-(2-methyl-piperidin-1-yl)acetamido)pyridin-3-yl)pyrazolo[5,1-b]thiazole-7-carboxamide], the IC50 is 0.7 nM in assay [1]; over 7500 nM against VEGFR2, unphosphorylated; 9.3 nM in assay [2].
